This note sets out measurements from paper PMC12717121, “ABA-independent PP2C-binding in PYLs traces to bacterial origins and persists in land plants” (Nature Communications, 2025).

The target of one experiment is T1, PP2CA (AtPP2CA) (Arabidopsis thaliana, UniProt P49598).
T1 construct: GST-PP2CA (pGEX-6P-1), E. coli BL21(DE3)
T1 sequence (P49598 1-399): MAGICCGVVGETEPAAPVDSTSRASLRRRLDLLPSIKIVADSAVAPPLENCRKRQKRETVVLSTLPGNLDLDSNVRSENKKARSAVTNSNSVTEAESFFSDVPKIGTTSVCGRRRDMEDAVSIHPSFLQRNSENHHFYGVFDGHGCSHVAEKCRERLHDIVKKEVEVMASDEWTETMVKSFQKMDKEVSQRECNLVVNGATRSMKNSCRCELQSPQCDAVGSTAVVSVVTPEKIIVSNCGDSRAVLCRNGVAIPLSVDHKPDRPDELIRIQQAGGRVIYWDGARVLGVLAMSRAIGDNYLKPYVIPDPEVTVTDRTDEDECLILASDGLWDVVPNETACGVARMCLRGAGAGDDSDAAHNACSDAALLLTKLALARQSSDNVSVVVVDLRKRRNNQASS
In words: phosphatase assay, A405. In kind it is biochemical. The following applies: 50 mM pNPP, 0.5 μM PP2C, 33 mM Tris-OAc pH 7.9, 25 mM Mg(OAc)2.

A further experiment has as its target T2, ABI1 (AtABI1) (Arabidopsis thaliana, UniProt P49597).
T2 construct: GST-ABI1 (pGEX-6P-1), E. coli BL21(DE3)
T2 sequence (P49597 1-434): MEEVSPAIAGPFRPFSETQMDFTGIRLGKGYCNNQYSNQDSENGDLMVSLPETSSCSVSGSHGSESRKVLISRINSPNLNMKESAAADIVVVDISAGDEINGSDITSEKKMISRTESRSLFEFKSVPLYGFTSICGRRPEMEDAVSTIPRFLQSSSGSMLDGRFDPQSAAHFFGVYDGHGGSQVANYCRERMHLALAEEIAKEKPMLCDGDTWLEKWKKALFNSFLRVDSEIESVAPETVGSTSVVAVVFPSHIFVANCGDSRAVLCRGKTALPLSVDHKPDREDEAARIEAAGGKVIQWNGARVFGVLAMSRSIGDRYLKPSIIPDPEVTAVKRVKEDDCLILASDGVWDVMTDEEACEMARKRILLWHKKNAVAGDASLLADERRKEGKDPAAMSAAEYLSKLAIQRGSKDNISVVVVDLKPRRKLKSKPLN
In words: phosphatase assay, A405. It counts as biochemical. The following applies: 50 mM pNPP, 0.5 μM PP2C, 33 mM Tris-OAc pH 7.9, 25 mM Mg(OAc)2.

Consider `O=[N+]([O-])c1ccc(OP(=O)(O)O)cc1` [pNPP], for which the “phosphatase assay, A405” value on PP2CA (AtPP2CA) and on ABI1 (AtABI1) was “Initial reaction velocities for GST-PP2Cs were measured using the synthetic phosphatase substrate pNPP” in each case.
